Experimental data taken from ChEMBL document CHEMBL1140819, “Protected aminooxyprolines for expedited library synthesis: application to Tsg101-directed proline-oxime containing peptides” (Bioorg Med Chem Lett, 2008).
*1 amine or outer side, *2 acyl side, *3 side chain or, on linkers, in order; H or OH if unused. Where a SMILES comes first, the peptide text is derived from it. [ ]: non-standard residue; d: D form. The star is where a group is joined. ξ: configuration not given here. Fluorescein(5-NHCS) = O=C1OC2(c3ccc(O)cc3Oc3cc(O)ccc32)c2cc(NC(=S)*)ccc21; X10 = O=C([C@@H]1C[C@H](O/N=C\c2c(F)c(F)c(F)c(F)c2F)CN1[*:1])[*:2]; X7 = O=C([C@@H]1[C@@H](O/N=C\c2c(F)c(F)c(F)c(F)c2F)CCN1[*:1])[*:2]; X9 = O=C([C@@H]1C[C@H](O/N=C\c2ccc([N+](=O)[O-])cc2)CN1[*:1])[*:2]; X5 = CC(/C=N\O[C@@H]1C[C@@H](C(=O)[*:2])N([*:1])C1)=C\c1ccccc1; X16 = COc1ccc(/C=N\O[C@H]2CCN([*:1])[C@@H]2C(=O)[*:2])cc1O; X14 = CCCCCCCC/C=N\O[C@@H]1C[C@@H](C(=O)[*:2])N([*:1])C1; X4 = O=C([C@@H]1[C@@H](O/N=C\c2ccncc2)CCN1[*:1])[*:2]; X6 = O=C([C@@H]1C[C@@H](O/N=C\c2ccoc2)CN1[*:1])[*:2]; X2 = CCCCC/C=N\O[C@H]1C[C@@H](C(=O)[*:2])N([*:1])C1; X3 = CCCCC/C=N\O[C@H]1CCN([*:1])[C@@H]1C(=O)[*:2]; ξPip = O=C(O)C1CCCCN1; Ava = NCCCCC(=O)O

What follows are molecules tested against T1, Tumor susceptibility gene 101 protein (Homo sapiens, UniProt Q99816) (assay: Binding affinity to Tsg101).
T1 sequence (Q99816 whole entry): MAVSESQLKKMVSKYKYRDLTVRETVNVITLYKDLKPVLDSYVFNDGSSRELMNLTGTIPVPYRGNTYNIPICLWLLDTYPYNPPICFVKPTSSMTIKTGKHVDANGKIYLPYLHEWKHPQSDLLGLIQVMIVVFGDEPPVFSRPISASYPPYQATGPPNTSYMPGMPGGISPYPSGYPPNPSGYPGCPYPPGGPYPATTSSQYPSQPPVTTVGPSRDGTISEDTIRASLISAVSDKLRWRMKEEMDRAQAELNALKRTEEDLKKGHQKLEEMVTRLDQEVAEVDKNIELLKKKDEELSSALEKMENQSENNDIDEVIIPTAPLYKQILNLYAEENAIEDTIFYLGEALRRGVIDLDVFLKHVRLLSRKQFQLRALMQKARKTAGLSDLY

| IC50 | SMILES |
| --- | --- |
| 23 µM | CCCCC/C=N\O[C@H]1CCN(C(=O)C2CCCCN2C(=O)[C@H](C)NC(=O)[C@@H](NC(=O)[C@@H]2CCCN2C(=O)[C@H](CCC(=O)O)NC(=O)[C@@H]2CCCN2C(=O)CCCCNC(=S)Nc2ccc3c(c2)C2(OC3=O)c3ccc(O)cc3Oc3cc(O)ccc32)[C@@H](C)O)[C@@H]1C(=O)N[C@@H](CCC(=O)O)C(=O)N[C@@H](CCC(=O)O)C(N)=O (stereo not given in full) ({Fluorescein(5-NHCS)-Ava}-PEPTA[ξPip][X3]EE-NH2) |
| 91 µM | C[C@H](NC(=O)[C@@H](NC(=O)[C@@H]1CCCN1C(=O)[C@H](CCC(=O)O)NC(=O)[C@@H]1CCCN1C(=O)CCCCNC(=S)Nc1ccc2c(c1)C1(OC2=O)c2ccc(O)cc2Oc2cc(O)ccc21)[C@@H](C)O)C(=O)N1CCCCC1C(=O)N1C[C@@H](O/N=C\c2ccc([N+](=O)[O-])cc2)C[C@H]1C(=O)N[C@@H](CCC(=O)O)C(=O)N[C@@H](CCC(=O)O)C(N)=O (stereo not given in full) ({Fluorescein(5-NHCS)-Ava}-PEPTA[ξPip][X9]EE-NH2) |
| 54 µM | CCCCCCCC/C=N\O[C@@H]1C[C@@H](C(=O)N[C@@H](CCC(=O)O)C(=O)N[C@@H](CCC(=O)O)C(N)=O)N(C(=O)C2CCCCN2C(=O)[C@H](C)NC(=O)[C@@H](NC(=O)[C@@H]2CCCN2C(=O)[C@H](CCC(=O)O)NC(=O)[C@@H]2CCCN2C(=O)CCCCNC(=S)Nc2ccc3c(c2)C2(OC3=O)c3ccc(O)cc3Oc3cc(O)ccc32)[C@@H](C)O)C1 (stereo not given in full) ({Fluorescein(5-NHCS)-Ava}-PEPTA[ξPip][X14]EE-NH2) |

Second part, the molecule before the results:

| SMILES | IC50 |
| --- | --- |
| CCCCC/C=N\O[C@H]1C[C@@H](C(=O)N[C@@H](CCC(=O)O)C(=O)N[C@@H](CCC(=O)O)C(N)=O)N(C(=O)C2CCCCN2C(=O)[C@H](C)NC(=O)[C@@H](NC(=O)[C@@H]2CCCN2C(=O)[C@H](CCC(=O)O)NC(=O)[C@@H]2CCCN2C(=O)CCCCNC(=S)Nc2ccc3c(c2)C2(OC3=O)c3ccc(O)cc3Oc3cc(O)ccc32)[C@@H](C)O)C1 (stereo not given in full) ({Fluorescein(5-NHCS)-Ava}-PEPTA[ξPip][X2]EE-NH2) | 42 µM |
| C[C@H](NC(=O)[C@@H](NC(=O)[C@@H]1CCCN1C(=O)[C@H](CCC(=O)O)NC(=O)[C@@H]1CCCN1C(=O)CCCCNC(=S)Nc1ccc2c(c1)C1(OC2=O)c2ccc(O)cc2Oc2cc(O)ccc21)[C@@H](C)O)C(=O)N1CCCCC1C(=O)N1CC[C@H](O/N=C\c2ccncc2)[C@H]1C(=O)N[C@@H](CCC(=O)O)C(=O)N[C@@H](CCC(=O)O)C(N)=O (stereo not given in full) ({Fluorescein(5-NHCS)-Ava}-PEPTA[ξPip][X4]EE-NH2) | 22 µM |
| CC(/C=N\O[C@@H]1C[C@@H](C(=O)N[C@@H](CCC(=O)O)C(=O)N[C@@H](CCC(=O)O)C(N)=O)N(C(=O)C2CCCCN2C(=O)[C@H](C)NC(=O)[C@@H](NC(=O)[C@@H]2CCCN2C(=O)[C@H](CCC(=O)O)NC(=O)[C@@H]2CCCN2C(=O)CCCCNC(=S)Nc2ccc3c(c2)C2(OC3=O)c3ccc(O)cc3Oc3cc(O)ccc32)[C@@H](C)O)C1)=C\c1ccccc1 (stereo not given in full) ({Fluorescein(5-NHCS)-Ava}-PEPTA[ξPip][X5]EE-NH2) | 13 µM |
| C[C@H](NC(=O)[C@@H](NC(=O)[C@@H]1CCCN1C(=O)[C@H](CCC(=O)O)NC(=O)[C@@H]1CCCN1C(=O)CCCCNC(=S)Nc1ccc2c(c1)C1(OC2=O)c2ccc(O)cc2Oc2cc(O)ccc21)[C@@H](C)O)C(=O)N1CCCCC1C(=O)N1C[C@H](O/N=C\c2ccoc2)C[C@H]1C(=O)N[C@@H](CCC(=O)O)C(=O)N[C@@H](CCC(=O)O)C(N)=O (stereo not given in full) ({Fluorescein(5-NHCS)-Ava}-PEPTA[ξPip][X6]EE-NH2) | 30 µM |
| C[C@H](NC(=O)[C@@H](NC(=O)[C@@H]1CCCN1C(=O)[C@H](CCC(=O)O)NC(=O)[C@@H]1CCCN1C(=O)CCCCNC(=S)Nc1ccc2c(c1)C1(OC2=O)c2ccc(O)cc2Oc2cc(O)ccc21)[C@@H](C)O)C(=O)N1CCCCC1C(=O)N1CC[C@H](O/N=C\c2c(F)c(F)c(F)c(F)c2F)[C@H]1C(=O)N[C@@H](CCC(=O)O)C(=O)N[C@@H](CCC(=O)O)C(N)=O (stereo not given in full) ({Fluorescein(5-NHCS)-Ava}-PEPTA[ξPip][X7]EE-NH2) | 19 µM |
| C[C@H](NC(=O)[C@@H](NC(=O)[C@@H]1CCCN1C(=O)[C@H](CCC(=O)O)NC(=O)[C@@H]1CCCN1C(=O)CCCCNC(=S)Nc1ccc2c(c1)C1(OC2=O)c2ccc(O)cc2Oc2cc(O)ccc21)[C@@H](C)O)C(=O)N1CCCCC1C(=O)N1C[C@@H](O/N=C\c2c(F)c(F)c(F)c(F)c2F)C[C@H]1C(=O)N[C@@H](CCC(=O)O)C(=O)N[C@@H](CCC(=O)O)C(N)=O (stereo not given in full) ({Fluorescein(5-NHCS)-Ava}-PEPTA[ξPip][X10]EE-NH2) | 139 µM |
| COc1ccc(/C=N\O[C@H]2CCN(C(=O)C3CCCCN3C(=O)[C@H](C)NC(=O)[C@@H](NC(=O)[C@@H]3CCCN3C(=O)[C@H](CCC(=O)O)NC(=O)[C@@H]3CCCN3C(=O)CCCCNC(=S)Nc3ccc4c(c3)C3(OC4=O)c4ccc(O)cc4Oc4cc(O)ccc43)[C@@H](C)O)[C@@H]2C(=O)N[C@@H](CCC(=O)O)C(=O)N[C@@H](CCC(=O)O)C(N)=O)cc1O (stereo not given in full) ({Fluorescein(5-NHCS)-Ava}-PEPTA[ξPip][X16]EE-NH2) | 13 µM |
